According to the OPERA property sets (Mansouri et al. 2018):

conditions: not given

First: CC(C)(C)C(=O)C(=O)O
Second: C=C(C)C(C)(C)C
The boiling point of the first is higher: 189 °C for the first, 77.9 °C for the second.

First: CCCC(C)CCC(C)C (stereo not given)
Second: CCCC(C)CC (stereo not given)
The boiling point of the first is higher: 158 °C for the first, 91 °C for the second.

First: O=C(OC(Cl)(Cl)Cl)C(Cl)(Cl)Cl
Second: CCOC(=O)[C@H](C)Cl
The boiling point of the first is higher: 192 °C for the first, 147 °C for the second.

Going from `C1CN2CCN1CC2` to `C=C1CCC1`, the boiling point falls from 174 °C to 42.2 °C.

Going from `C=CCCCCCC` to `CCCCCc1ccc(O)cc1`, the boiling point rises from 121 °C to 250 °C.

Compared with `Cc1cccc(N)c1N`, `CCc1ccc(C)c(C)c1` is lower in boiling point: 255 °C for the first, 190 °C for the second.

Compared with `Clc1cccc(-c2cccc(Cl)c2)c1`, `O=C(c1ccccc1)c1ccc(Cl)cc1` is higher in boiling point: 320 °C for the first, 332 °C for the second.

First: O=C=O
Second: CC(C)(C)[N+](=O)[O-]
The boiling point of the first is lower: -78.5 °C for the first, 127 °C for the second.

Going from `O=Cc1ccccn1` to `CC1Cc2ccccc2C1`, the boiling point rises from 180 °C to 195 °C.

Compared with `Cc1cccc(C(=O)c2ccccc2)c1`, `NC(=O)Nc1ccc(Br)cc1` is lower in boiling point: 317 °C for the first, 260 °C for the second.

Compared with `CC[Si](OC)(OC)OC`, `CCOC(=O)C(CCC(C)C)C(=O)OCC` is higher in boiling point: 124 °C for the first, 241 °C for the second.

Compared with `CBr`, `CC(C)CC(=O)O` is higher in boiling point: 3.5 °C for the first, 176 °C for the second.

First: CCCC(O)(CC)CCC
Second: ClCCCCCl
The boiling point of the first is higher: 182 °C for the first, 161 °C for the second.

Compared with `ClCCC(Cl)Cl`, `C#CCCCO` is higher in boiling point: 146 °C for the first, 154 °C for the second.

First: COCc1ccco1
Second: Brc1ccc(Sc2ccc(Br)cc2)cc1
The boiling point of the first is lower: 132 °C for the first, 268 °C for the second.

Work on `FC(I)I` yielded a boiling point of 100 °C.

Going from `CC(C)(C)C(=O)C(=O)O` to `C=C(C)C(C)(C)C`, the melting point falls from 90.5 °C to -110 °C.

First: CC(CC(=O)O)CC(=O)O
Second: CC(C)CC(=O)O
The melting point of the first is higher: 87 °C for the first, -29.3 °C for the second.

First: CCn1cc(C(=O)O)c(=O)c2cnc(N3CCNCC3)nc21
Second: COc1ccc(C(=CC(=O)N2CCOCC2)c2ccc(Cl)cc2)cc1OC
The melting point of the first is higher: 254 °C for the first, 148 °C for the second.

Going from `CN/C(=N\C#N)NCCSCc1nc[nH]c1C` to `CCc1ccc(C)c(C)c1`, the melting point falls from 142 °C to -66.9 °C.

Compared with `O=[N+]([O-])c1ccc(O)cc1C(F)(F)F`, `CCCCCc1ccc(O)cc1` is lower in melting point: 76 °C for the first, 23 °C for the second.

Going from `O=C(OC(Cl)(Cl)Cl)C(Cl)(Cl)Cl` to `CCN(CC)C(=O)C(Cl)(Cl)Cl`, the melting point falls from 34 °C to 27 °C.

Going from `Nc1ccc2cc(S(=O)(=O)O)cc(S(=O)(=O)O)c2c1` to `CC(C)=CCOc1c2occc2cc2ccc(=O)oc12`, the melting point falls from 274 °C to 102 °C.

Compared with `C1CN2CCN1CC2`, `C=C1CCC1` is lower in melting point: 159 °C for the first, -135 °C for the second.

Compared with `C=CCCCCCC`, `ClCCCCCl` is higher in melting point: -102 °C for the first, -37.3 °C for the second.

Going from `CC(C)CCC[C@@H](C)[C@H]1CC[C@H]2[C@@H]3CCC4=C[C@@H](O)CC[C@]4(C)[C@H]3CC[C@]12C` to `CCC(C)(C)C(=O)O[C@H]1C[C@@H](C)C=C2C=C[C@H](C)[C@H](CC[C@@H]3C[C@@H](O)CC(=O)O3)[C@H]21`, the melting point rises from 132 °C to 136 °C.

First: COc1cc2c(c(OC)c1OC)-c1ccc(OC)c(=O)cc1[C@@H](NC(C)=O)CC2
Second: O=C(Nc1ccc2nn(C3CCCCC3)nc2c1)c1ccccc1
The melting point of the first is lower: 156 °C for the first, 212 °C for the second.

Going from `Cc1cccc(N)c1N` to `Nc1cnn(-c2ccccc2)c(=O)c1Br`, the melting point rises from 63.5 °C to 224 °C.

First: NC(=O)c1cc(Cl)cc(Cl)c1N
Second: Clc1cccc(-c2cccc(Cl)c2)c1
The melting point of the first is higher: 162 °C for the first, 29 °C for the second.

Compared with `O=C=O`, `CP(C)(=O)O` is higher in melting point: -56.5 °C for the first, 92 °C for the second.

First: CO[C@H]1O[C@H](CO)[C@@H](O)[C@H](O)[C@H]1O
Second: CCCCCCCCCCCCCCCCCC(=O)OC[C@@H](O)[C@H]1OC[C@H](O)[C@H]1O
The melting point of the first is higher: 168 °C for the first, 57 °C for the second.

Compared with `CC/C=C/C=C/C=O`, `CCCC(C)CC` (stereo not given) is lower in melting point: 84.5 °C for the first, -119 °C for the second.

Compared with `SCc1ccc(Cl)cc1`, `O=C(c1ccccc1)c1ccc(Cl)cc1` is higher in melting point: 19.5 °C for the first, 77.5 °C for the second.

Compared with `CBr`, `CC(C)(C)[N+](=O)[O-]` is higher in melting point: -93.7 °C for the first, 26.2 °C for the second.

Compared with `C[N+](C)(C)CCOC(=O)CCC(=O)OCC[N+](C)(C)C.[Cl-].[Cl-]`, `NC(=O)Nc1ccc(Br)cc1` is higher in melting point: 190 °C for the first, 226 °C for the second.

Compared with `ClCCC(Cl)Cl`, `FC(I)I` is higher in melting point: -59 °C for the first, -34.5 °C for the second.

In the case of `Brc1ccc(Sc2ccc(Br)cc2)cc1`, the melting point is reported as 115 °C.

Going from `CCCC(C)CCC(C)C` (stereo not given) to `CCCC(C)CC` (stereo not given), the log10 biodegradation half-life (days) rises from 0.301 to 0.954.

With `CCc1ccc(C)c(C)c1` the log10 biodegradation half-life (days) was 0.699.

`O=[N+]([O-])c1ccc(O)cc1C(F)(F)F` and `NC(=O)Nc1ccc(Br)cc1` are within 0.2 log units of each other in log10 Koc (L/kg): 2.11 for the first, 2.06 for the second.

Compared with `CBr`, `c1ccc2c(c1)ccc1c3ccc4ccccc4c3[nH]c21` is higher in log10 Koc (L/kg): 1.34 for the first, 6.02 for the second.

Going from `C1CN2CCN1CC2` to `COc1ccc(C(=CC(=O)N2CCOCC2)c2ccc(Cl)cc2)cc1OC`, the log10 vapour pressure (mmHg) falls from -0.13 to -8.13.

Compared with `C=CCCCCCC`, `ClCCCCCl` is lower in log10 vapour pressure (mmHg): 1.24 for the first, 0.616 for the second.

First: Cc1cccc(N)c1N
Second: CCc1ccc(C)c(C)c1
The log10 vapour pressure (mmHg) of the first is lower: -3.26 for the first, -0.126 for the second.

Going from `Clc1cccc(-c2cccc(Cl)c2)c1` to `CCOC(=O)[C@H](C)Cl`, the log10 vapour pressure (mmHg) rises from -3.19 to 0.557.

First: O=C=O
Second: CC(C)(C)[N+](=O)[O-]
The log10 vapour pressure (mmHg) of the first is higher: 4.68 for the first, 1.08 for the second.

Compared with `CBr`, `C=C(C)C(C)(C)C` is lower in log10 vapour pressure (mmHg): 3.21 for the first, 2.05 for the second.

Compared with `CCCC(C)CC` (stereo not given), `CC(C)CC(=O)O` is lower in log10 vapour pressure (mmHg): 1.79 for the first, -0.356 for the second.

For `C1CN2CCN1CC2`, the ready biodegradability was “not readily biodegradable”.
For `CC(c1ccccc1)c1ccc(O)c(C(C)c2ccccc2)c1C(C)c1ccccc1` (stereo not given), the ready biodegradability was “not readily biodegradable”.
For `CCCOC(=O)N1CCNCC1`, the ready biodegradability was “readily biodegradable”.
With `CC=C(C(=O)OC)C(=O)OC` the ready biodegradability was “readily biodegradable”.
In the case of `CBr`, the ready biodegradability is reported as “not readily biodegradable”.
For `ClCCCCCl`, the ready biodegradability was “not readily biodegradable”.
In the case of `CC(C)CC(=O)O`, the ready biodegradability is reported as “readily biodegradable”.

Molecule `C=CCCCCCC` has a log10 Koa of 3.35.

Compared with `Cc1c(Cl)ccc(Cl)c1Cl`, `Clc1cccc(-c2cccc(Cl)c2)c1` is lower in log10 Henry constant (atm·m³/mol): -2.82 for the first, -3.63 for the second.

Going from `CBr` to `CC(C)CC(=O)O`, the log10 Henry constant (atm·m³/mol) falls from -2.13 to -6.08.

Going from `CCc1nccnc1OC` to `ClCCCCCl`, the log10 Henry constant (atm·m³/mol) rises from -4.83 to -3.31.

same assay, conditions: fish

Molecule `CC(=O)N(C)c1ccccc1` has a log10 BCF of 0.18.

First: CC(=O)N(C)c1ccccc1
Second: CCc1ccc2ccc3cccc4ccc1c2c34
The log10 biotransformation half-life (days) of the first is lower: -1.12 for the first, 0.24 for the second.
